Legend:
SN12C = assay: NCI COMPARE panel (SRB growth inhibition), SN12C; assay type: cell-based; settings: Homo sapiens, Renal Cancer, 48 h
Procedure: (§1) The human tumor cell lines of the cancer screening panel are grown in RPMI 1640 medium containing 5% fetal bovine serum and 2 mM L-glutamine. For a typical screening experiment, cells are inoculated into 96 well microtiter plates in 100 µL at plating densities ranging from 5,000 to 40,000 cells/well depending on the doubling time of individual cell lines. After cell inoculation, the microtiter plates are incubated at 37° C., 5% CO2, 95% air and 100% relative humidity for 24 h prior to addition of experimental drugs.
(§2) After 24 h, two plates of each cell line are fixed in situ with TCA, to represent a measurement of the cell population for each cell line at the time of drug addition (Tz). Experimental drugs are solubilized in dimethyl sulfoxide at 400-fold the desired final maximum test concentration and stored frozen prior to use. […]
(§3) Following drug addition, the plates are incubated for an additional 48 h at 37° C., 5 % CO2, 95% air, and 100% relative humidity. […] Bound stain is subsequently solubilized with 10 mM trizma base, and the absorbance is read on an automated plate reader at a wavelength of 515 nm. […] Using the seven absorbance measurements [time zero, (Tz), control growth, (C), and test growth in the presence of drug at the five concentration levels (Ti)], the percentage growth is calculated at each of the drug concentrations levels. Percentage growth inhibition is calculated as: […]

PI3Kα = PI3Kα (Homo sapiens, UniProt P42336); assay: Z'-LYTE / Adapta biochemical kinase assay, PI3Kα; settings: for inhibition at 0.1 µM: concentration of 100 nM/liter, read-out: Percent Inhibition of target enzymes, PI3K A
Sequence of PI3Kα (P42336 whole entry): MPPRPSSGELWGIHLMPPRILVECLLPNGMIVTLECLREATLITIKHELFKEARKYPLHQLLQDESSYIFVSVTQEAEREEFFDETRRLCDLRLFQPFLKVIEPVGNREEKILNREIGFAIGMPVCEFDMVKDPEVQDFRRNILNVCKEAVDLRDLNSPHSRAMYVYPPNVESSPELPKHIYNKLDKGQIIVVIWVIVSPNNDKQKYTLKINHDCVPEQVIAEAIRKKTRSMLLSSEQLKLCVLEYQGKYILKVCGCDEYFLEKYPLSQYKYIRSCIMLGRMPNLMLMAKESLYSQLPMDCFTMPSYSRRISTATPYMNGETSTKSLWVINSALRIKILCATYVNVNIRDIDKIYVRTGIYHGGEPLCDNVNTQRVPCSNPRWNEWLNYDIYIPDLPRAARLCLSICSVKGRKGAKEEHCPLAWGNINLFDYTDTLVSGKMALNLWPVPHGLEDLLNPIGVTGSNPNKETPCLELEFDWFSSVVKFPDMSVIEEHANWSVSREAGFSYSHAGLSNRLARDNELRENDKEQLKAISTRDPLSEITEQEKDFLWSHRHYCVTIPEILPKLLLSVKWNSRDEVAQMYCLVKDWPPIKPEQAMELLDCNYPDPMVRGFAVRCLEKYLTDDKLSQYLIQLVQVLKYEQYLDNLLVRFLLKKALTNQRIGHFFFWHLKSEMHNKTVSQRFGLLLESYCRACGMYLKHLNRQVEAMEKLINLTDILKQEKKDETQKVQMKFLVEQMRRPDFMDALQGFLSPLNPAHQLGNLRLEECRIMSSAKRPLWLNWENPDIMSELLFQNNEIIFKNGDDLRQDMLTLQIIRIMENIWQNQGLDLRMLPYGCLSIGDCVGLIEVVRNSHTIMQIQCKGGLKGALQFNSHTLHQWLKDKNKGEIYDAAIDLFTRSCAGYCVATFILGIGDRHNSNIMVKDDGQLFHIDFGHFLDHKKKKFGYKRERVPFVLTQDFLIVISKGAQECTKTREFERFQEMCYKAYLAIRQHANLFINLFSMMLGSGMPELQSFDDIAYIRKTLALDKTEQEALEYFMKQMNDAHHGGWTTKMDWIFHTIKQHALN
Sequence of PI3Kα (P27986 whole entry partner): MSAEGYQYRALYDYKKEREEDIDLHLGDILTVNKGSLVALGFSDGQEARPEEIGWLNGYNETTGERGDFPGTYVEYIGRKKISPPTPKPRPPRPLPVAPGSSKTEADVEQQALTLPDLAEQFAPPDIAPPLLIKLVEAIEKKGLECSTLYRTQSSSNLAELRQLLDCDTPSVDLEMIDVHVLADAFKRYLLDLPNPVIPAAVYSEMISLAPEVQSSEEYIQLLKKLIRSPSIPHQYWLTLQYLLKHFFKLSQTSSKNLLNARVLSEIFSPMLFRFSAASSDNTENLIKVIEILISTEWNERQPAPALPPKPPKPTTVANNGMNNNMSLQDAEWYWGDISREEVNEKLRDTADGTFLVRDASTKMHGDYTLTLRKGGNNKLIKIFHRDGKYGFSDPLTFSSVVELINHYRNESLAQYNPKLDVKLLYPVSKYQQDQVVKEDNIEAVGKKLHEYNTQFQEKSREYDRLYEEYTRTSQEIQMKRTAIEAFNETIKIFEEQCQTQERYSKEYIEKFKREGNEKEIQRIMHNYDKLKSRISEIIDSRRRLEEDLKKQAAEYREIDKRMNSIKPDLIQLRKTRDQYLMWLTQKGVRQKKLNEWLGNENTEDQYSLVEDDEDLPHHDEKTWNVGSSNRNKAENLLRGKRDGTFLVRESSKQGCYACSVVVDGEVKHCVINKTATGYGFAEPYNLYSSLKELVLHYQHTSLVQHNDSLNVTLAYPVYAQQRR
Text: The Z′-LYTE® biochemical assay employs a fluorescence-based, coupled-enzyme format and is based on the differential sensitivity of phosphorylated and non-phosphorylated peptides to proteolytic cleavage. The peptide substrate is labeled with two fluorophores—one at each end—that make up a FRET pair. In the primary reaction, the kinase transfers the gamma-phosphate of ATP to a single tyrosine, serine or threonine residue in a synthetic FRET-peptide. In the secondary reaction, a site-specific protease recognizes and cleaves non-phosphorylated FRET-peptides. Phosphorylation of FRET-peptides suppresses cleavage by the Development Reagent. Cleavage disrupts FRET between the donor (i.e., coumarin) and acceptor (i.e., fluorescein) fluorophores on the FRET-peptide, whereas uncleaved, phosphorylated FRET-peptides maintain FRET. A ratiometric method, which calculates the ratio (the Emission Ratio) of donor emission to acceptor emission after excitation of the donor fluorophore at 400 nm, is used to quantitate reaction progress.
A significant benefit of this ratiometric method for quantitating reaction progress is the elimination of well-to-well variations in FRET-peptide concentration and signal intensities. As a result, the assay yields very high Z′-factor values (>0.7) at a low percent phosphorylation.
Both cleaved and uncleaved FRET-peptides contribute to the fluorescence signals and therefore to the Emission Ratio. The extent of phosphorylation of the FRET-peptide can be calculated from the Emission Ratio. The Emission Ratio will remain low if the FRET-peptide is phosphorylated (i.e., no kinase inhibition) and will be high if the FRET-peptide is non-phosphorylated (i.e., kinase inhibition).
Enzyme: The ADAPTA universal kinase assay is a homogenous, fluorescent based immunoassay for the detection of ADP. In contrast to ATP depletion assays, the ADAPTA assay is extremely sensitive to ADP formation such that a majority of the signal change occurs in the first 10-20% conversion of ATP to ADP. This makes the ADAPTA universal kinase assay ideally suited for use with low activity kinases.
The principle of the ADAPTA universal kinase assay is outlined below. The assay itself can be divided into two phases: a kinase reaction phase, and an ADP detection phase. In the kinase reaction phase, all components required for the kinase reaction are added to the well, and the reaction is allowed to incubate for 60 minutes. After the reaction, a detection solution consisting of a europium labeled anti-ADP antibody, an Alexa Fluor® 647 labeled ADP tracer, and EDTA (to stop the kinase reaction) is added to the assay well. ADP formed by the kinase reaction (in the absence of an inhibitor) will displace the Alexa Fluor® 647 labeled ADP tracer from the antibody, resulting in a decrease in the TR-FRET signal. In the presence of an inhibitor, the amount of ADP formed by the kinase reaction is reduced, and the resulting intact antibody-tracer interaction results in a high TR-FRET signal.
Test Compounds: The Test Compounds are screened in 1% DMSO (final) in the well. For 10 point titrations, 3-fold serial dilutions are conducted from the starting concentration of the customer’s choosing.
Peptide/Kinase Mixtures: All Peptide/Kinase Mixtures are diluted to a 2X working concentration in the appropriate Kinase Buffer.
ATP Solution: All ATP Solutions are diluted to a 4X working concentration in Kinase Buffer (50 mM HEPES pH 7.5, 0.01% BRIJ-35, 10 mM MgCl2,1 mM EGTA). ATP Km apparent is previously determined using a Z′-LYTE® assay.
Development Reagent Solution: The Development Reagent is diluted in Development Buffer.
Assay Protocol: Bar-coded Corning, low volume NBS, black 384-wellplate (Corning Cat. #4514) 1. 2.5 µL - 4X Test Compound or 100 nL 100X plus 2.4 µL kinase buffer. 2. 5 µL - 2X Peptide/Kinase Mixture. 3. 2.5 µL - 4X ATP Solution. 4. 30-second plate shake. 5. 60-minute Kinase Reaction incubation at room temperature. 6. 5 µL - Development Reagent Solution. 7. […]

LOX IMVI = assay: NCI COMPARE panel (SRB growth inhibition), LOX IMVI; assay type: cell-based; settings: Homo sapiens, Melanoma, 48 h
Procedure: as §1, §2, §3

MDA-MB-435 = assay: NCI COMPARE panel (SRB growth inhibition), MDA-MB-435; assay type: cell-based; settings: Homo sapiens; Melanoma, MDA-MB-435, 48 h
Procedure: as §1, §2, §3

SMILES | GI50 (SN12C) | IC50 (PI3Kα; PI3Kα) | inhibition at 0.1 µM (PI3Kα) | GI50 (LOX IMVI) | GI50 (MDA-MB-435)
CS(=O)(=O)Nc1cc(-c2ccc3ncnc(Nc4cccc(Cl)c4F)c3c2)cnc1Cl [Compound 6, N-[2-chloro-5-[4-(3-chloro-2-fluoro-anilino)quinazolin-6-yl]-3-pyridyl] methanesulfonamide] | 0.125 to 0.25 µM | ≤ 0.002 µM | > 90% | 0.125 to 0.25 µM | 0.125 to 0.25 µM
CS(=O)(=O)Nc1cc(-c2ccc3ncc(C#N)c(Nc4cccc(Cl)c4F)c3c2)cnc1Cl [Compound 10, N-[2-chloro-5-[4-(3-chloro-2-fluoro-anilino)-3-cyano-6-quinolyl]-3-pyridyl]methanesulfonamide] | 0.075 to 0.125 µM |  | > 90% | 0.075 to 0.125 µM | 0.125 to 0.25 µM
